# Experimental data as given in patent publication US6303578A, “Mu-opiate receptor peptides” (Administrators of the Tulane Educational Fund, priority 1999, dated 2001).
# Several values for one entry are separate records, joined by “and”; a condition that tells them apart may be missing. Identical values can stand only once. Like-named read-outs stand apart in the source and are kept apart here. Bridge positions count the residues as written; N and C are the ends. Square brackets hold non-standard residues; d marks the D form. Peptide text beside a SMILES is read from it. dOrn = NCCC[C@@H](N)C(=O)O
# How the values were obtained:
# μ receptors [1] = biological target: T1, μ receptors (Homo sapiens, UniProt P35372); assay: Binding to μ opiate receptors by inhibition of [3H]-DAMGO
# T1 sequence (P35372 whole entry): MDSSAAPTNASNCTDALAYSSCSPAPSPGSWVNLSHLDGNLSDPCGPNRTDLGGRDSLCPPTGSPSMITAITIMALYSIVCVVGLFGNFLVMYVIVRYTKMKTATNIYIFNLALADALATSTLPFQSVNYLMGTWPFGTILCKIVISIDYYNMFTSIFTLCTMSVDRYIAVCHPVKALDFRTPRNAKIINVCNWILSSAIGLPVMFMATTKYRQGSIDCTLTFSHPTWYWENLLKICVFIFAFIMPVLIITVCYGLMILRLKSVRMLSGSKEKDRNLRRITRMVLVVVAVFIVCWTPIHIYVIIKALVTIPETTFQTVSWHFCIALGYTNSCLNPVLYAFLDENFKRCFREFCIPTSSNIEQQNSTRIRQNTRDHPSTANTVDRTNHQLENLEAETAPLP
# Experimental: (§1) The relative affinity and selectivity for the μ receptor over the δ and κ receptors of the synthesized peptides were tested and compared.
# guinea pig ileum [2] = format: cell-based
# Source text: […]. […] […]
# mice [3] = assay: Analgesia in mice after IV injection; format: in vivo
# mice [4] = system: mice
# guinea pig ileum [5] = settings: for overall agonist character: conclusion of Example 7
# κ receptors = κ receptors (Homo sapiens, UniProt P41145); settings: cited from earlier work; for Ki: values obtained from (7) or (20), read-out: Receptor Binding Ki κ
# Sequence of κ receptors (P41145 whole entry): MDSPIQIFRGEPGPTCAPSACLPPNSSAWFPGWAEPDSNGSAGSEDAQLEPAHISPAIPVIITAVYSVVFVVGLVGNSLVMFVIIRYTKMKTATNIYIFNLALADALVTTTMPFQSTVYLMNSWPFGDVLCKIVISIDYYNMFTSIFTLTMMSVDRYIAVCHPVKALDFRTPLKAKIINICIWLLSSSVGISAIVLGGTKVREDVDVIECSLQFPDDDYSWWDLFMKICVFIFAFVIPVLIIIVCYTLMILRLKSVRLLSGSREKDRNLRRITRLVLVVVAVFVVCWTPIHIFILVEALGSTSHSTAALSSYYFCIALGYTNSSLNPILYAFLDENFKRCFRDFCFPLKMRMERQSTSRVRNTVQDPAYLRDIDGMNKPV
# mice [6] = settings: from reference (24); cited from earlier work
# mice [7] = settings: it injection
# δ receptors [8] = biological target: T2, δ receptors (Homo sapiens, UniProt P41143); assay: Binding to δ opiate receptors by inhibition of 3H-pCl-DPDPE; settings: FIG. 1 set of 20 pin-synthesized peptides
# T2 sequence (P41143 whole entry): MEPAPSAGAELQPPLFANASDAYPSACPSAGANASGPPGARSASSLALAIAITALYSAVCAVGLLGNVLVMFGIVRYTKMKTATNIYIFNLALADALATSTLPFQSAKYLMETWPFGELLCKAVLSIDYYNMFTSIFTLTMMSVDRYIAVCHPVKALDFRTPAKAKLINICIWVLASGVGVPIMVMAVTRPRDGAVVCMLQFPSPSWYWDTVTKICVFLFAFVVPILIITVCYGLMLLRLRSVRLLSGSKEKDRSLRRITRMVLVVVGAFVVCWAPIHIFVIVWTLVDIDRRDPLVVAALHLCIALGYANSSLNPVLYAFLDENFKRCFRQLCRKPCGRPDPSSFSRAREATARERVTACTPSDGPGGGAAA
# Experimental: as §1
# μ receptors [9] = biological target: T1, μ receptors; settings: values obtained from (7) or (20); read-out: Receptor Binding Ki μ; cited from earlier work
# δ receptors [10] = biological target: T2, δ receptors; settings: cited from earlier work
# [11] = methods of Example 3, route not given
# [12] = untreated guinea pig ileum, read-out: agonist activity IC50 in the untreated ileum
# [13] = mean±SEM, read-out: IC50 inhibiting electrically-induced contractions of the guinea pig ileum
smiles,measurement,setting,value
"N[C@@H](Cc1ccc(O)cc1)C(=O)N[C@@H]1CCCCNC(=O)[C@H](Cc2ccccc2)NC(=O)[C@H](Cc2c[nH]c3ccccc23)NC1=O [SEQ ID NO:13, H-Tyr-c-[D-Lys-Trp-Phe]] (H-Y[dK]WF; lactam 2-C)",μ receptor affinity higher than the peptide of SEQ ID NO:1,μ receptors [1],about 15 fold
same,IC50 in the guinea pig ileum assay (in words),guinea pig ileum [2],subnanomolar
same,potency in the guinea pig ileum assay greater than SEQ ID NO:1,guinea pig ileum [2],about 4 fold
same,ED50 analgesia,mice [3],0.16 µmol/kg
same,analgesic potency IC50,mice [4]; [11],0.3 µg
same,analgesic potency greater than SEQ ID NO:1,mice [4]; [11],about 10 fold
"N[C@@H](Cc1ccc(O)cc1)C(=O)N1CCC[C@H]1C(=O)N[C@@H](Cc1ccccc1)C(=O)N[C@@H](Cc1ccccc1)C(=O)O [SEQ ID NO:4, H-Tyr-Pro-Phe-Phe-OH]",IC50,guinea pig ileum [2]; [12],20000 nM
same,activity after treatment with 20 nM beta-chlornaltrexamine,guinea pig ileum [5]; B-CNA treated ileum,antagonist activity
same,overall agonist character,guinea pig ileum [5],partial agonist activity
"C[C@@H](NC(=O)[C@@H](N)Cc1ccc(O)cc1)C(=O)NCC(=O)N(C)[C@@H](Cc1ccccc1)C(=O)NCCO [DAMGO, reference compound]",IC50,guinea pig ileum [2]; [13],6.8 ± 0.8 nM
same,inhibition of electrically-induced contractions,"guinea pig ileum [5]; 0.3 μM DAMGO, ileum treated with 20 nM B-CNA",40%
CSCC[C@H](NC(=O)[C@H](Cc1ccccc1)NC(=O)CNC(=O)CNC(=O)[C@@H](N)Cc1ccc(O)cc1)C(=O)O [Met-Enkephalin],Ki,κ receptors,4440 nM
same,ED50 analgesia,mice [6],75 µg
same,duration of analgesic effects,mice [6],less than 10 min
"NC(=O)[C@H](Cc1ccccc1)NC(=O)[C@H](Cc1c[nH]c2ccccc12)NC(=O)[C@@H]1CCCN1C(=O)[C@@H](N)Cc1ccc(O)cc1 [SEQ ID NO:1, H-Tyr-Pro-Trp-Phe-NH2]",IC50,guinea pig ileum [2]; [13],3.6 ± 0.3 nM
same,effect of antagonists on the peptide's effect in guinea pig ileum,"guinea pig ileum [2]; naloxone 0.5 μM and CTOP 0.5 μM, applied 1 min before or after, not by nor-binaltorphimine 20 nM",blocked and reversed
same,animals still analgesic 1 hr after injection,"mice [4]; mice, 10-20 μg of the peptide, 1 hr",About half
same,effect of antagonists on analgesia induced by 10 μg of the peptide,"mice [4]; naloxone 1 mg/kg sc, β-funaltrexamine 40 mg/kg 24 h pretreatment",reversed
same,ED50 analgesia,mice [7],0.8 µg
"N[C@@H](Cc1ccc(O)cc1)C(=O)N[C@@H]1CCCNC(=O)[C@H](Cc2ccccc2)NC(=O)[C@H](Cc2c[nH]c3ccccc23)NC1=O [SEQ ID NO:15, H-Tyr-c-[D-Orn-Trp-Phe]] (H-Y[dOrn]WF; lactam 2-C)",μ receptor affinity higher than the peptide of SEQ ID NO:1,μ receptors [1],about 4 fold
"CN1CC[C@]23c4c5ccc(O)c4O[C@H]2[C@@H](O)C=C[C@H]3[C@H]1C5 [morphine, reference compound]",ED50,mice [3]; Mus musculus,0.3 µmol/kg
"N[C@@H](Cc1ccc(O)cc1)C(=O)N1CCC[C@H]1C(=O)N[C@@H](Cc1c[nH]c2ccccc12)C(=O)N[C@@H](Cc1ccccc1)C(=O)O [SEQ ID NO:3, H-Tyr-Pro-Trp-Phe-OH]",IC50,guinea pig ileum [2]; [12],5000 nM
same,activity after treatment with 20 nM beta-chlornaltrexamine,guinea pig ileum [5]; B-CNA treated ileum,antagonist activity
same,overall agonist character,guinea pig ileum [5],partial agonist activity
same,inhibition of contractions by DAMGO after pretreatment with the peptide,"guinea pig ileum [5]; peptide 20 μM 1 minute before 0.3 μM DAMGO, B-CNA treated ileum",25%
"NC(=O)CNC(=O)[C@H](Cc1c[nH]c2ccccc12)NC(=O)[C@@H]1CCCN1C(=O)[C@@H](N)Cc1ccc(O)cc1 [Tyr-W-MIF-1, Tyr-Pro-Trp-Gly-NH2] (H-YPWG-NH2)",Ki,μ receptors [1],85 nM
same,selectivity for μ over δ receptors (δ Ki/μ Ki),δ receptors [8],240 fold
same,Ki,μ receptors [9],70.9 nM and 70 nM
same,selectivity for μ over δ receptors,"δ receptors [10]; background, reference (7)",> 200 fold
same,Ki,"δ receptors [10]; values obtained from (7) or (20), read-out: Receptor Binding Ki δ",15500 nM
same,Binding Selectivity δ/μ,δ receptors [10]; values obtained from (7),219
same,selectivity for μ over κ receptors,"κ receptors; background, reference (7)",> 300 fold
same,Ki,κ receptors,22300 nM
same,Binding Selectivity κ/μ,κ receptors; values obtained from (7),314
"NC(=O)[C@H](Cc1ccccc1)NC(=O)[C@H](Cc1ccccc1)NC(=O)[C@@H]1CCCN1C(=O)[C@@H](N)Cc1ccc(O)cc1 [SEQ ID NO:2, H-Tyr-Pro-Phe-Phe-NH2]",IC50,guinea pig ileum [2]; [13],4 ± 0.4 nM
same,ED50 analgesia,"mice [4]; mice, icv injection",8.4 µg
